Measured values reported in patent publication US20260200928A1, “THERAPEUTIC COMPOUNDS” (Sanofi, priority 2022, published 2026).

Target: T1, human IL-17A (Homo sapiens, UniProt Q16552)
T1 construct: purchased R&D Systems 7955-IL/CF
T1 sequence (Q16552 24-155): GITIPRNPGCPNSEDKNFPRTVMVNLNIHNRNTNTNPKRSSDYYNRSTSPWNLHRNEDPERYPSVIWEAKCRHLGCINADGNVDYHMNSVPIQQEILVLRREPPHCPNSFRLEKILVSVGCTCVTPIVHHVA
Assay: IL-17A AlphaLISA competition assay (block of IL-17A binding to its receptor IL-17RA)
Settings: mean IC50 (n≥2), block of IL-17A binding to IL-17RA
Protocol: The ability of the compounds to block binding of IL-17A to its receptor, IL-17RA, was analysed in a competition assay using AlphaLISA technology (Perkin Elmer). The assay is a bead based AlphaLISA where the IL-17RA is captured on the acceptor bead via an Fc tag and IL-17A is captured on the streptavidin donor bead via a biotinylated anti-IL17A antibody.
Assay buffer was prepared by adding 0.05% Tween-20 (v/v) and 0.1% BSA to Phosphate Buffered Saline (PBS). The assay was carried out in 384-well white low volume plates (Perkin Elmer #6008359). 10 μL of a 7.5 nM stock of human recombinant IL-17A (R&D Systems 7955-IL/CF) diluted in assay buffer was dispensed into the assay plate and compounds or DMSO vehicle control were added in a volume of 75 nL using an acoustic dispenser (Beckman). The compounds were pre-incubated with the IL-17A for 30 min at room temperature prior to addition of 5 μL of a 5 nM stock of human recombinant IL-17RA/Fc chimera (R&D Systems 177-IR-100) diluted in assay buffer. The IL-17A was incubated with the receptor for a further 90 minutes at room temperature before addition of 5 μL of a mixture of anti-human Fc IgG acceptor beads (75 μg/mL, Perkin Elmer AL1030) and anti-IL-17A biotin conjugated antibody (5 nM, Abcam, #ab155575) in assay buffer. After a further 30 min incubation at room temperature, 5 μL of streptavidin donor beads (75 μg/mL, Perkin Elmer 6760002S) were added and the plate was incubated for 3 h in the dark.
The AlphaLisa signal was measured using the PheraSTAR plate reader (BMG). Data were analysed using GeneData Screener and fitted to a 4-parameter logistic equation. The IC50 values were calculated using the DMSO vehicle as the negative control and a high concentration (4 μM) of a reference IL-17A inhibitor as the positive control. All compounds were analysed at least in duplicate (n≥2).

IC50 [nM] | Compound
10 | COC[C@H](c1ccnc(NC(=O)[C@H](COC(C)(C)C(F)(F)F)NC(=O)c2nonc2C2CC2)c1)N1C[C@@H](C(F)(F)F)NC1=O [Example 269, 4-cyclopropyl-N-((S)-1-((4-((S)-2-methoxy-1-((S)-2-oxo-4-(trifluoromethyl)imidazolidin-1-yl)ethyl)pyridin-2-yl)amino)-1-oxo-3-((1,1,1-trifluoro-2-methylpropan-2-yl)oxy)propan-2-yl)-1,2,5-oxadiazole-3-carboxamide]
125 | COC[C@H](c1ccnc(NC(=O)C(NC(=O)c2ccnn2C(C)C)C2CCC(F)CC2)c1)N1C[C@@H](C(F)(F)F)NC1=O (single isomer, unassigned) [Example 289]
619 | Cc1nonc1C(=O)NC(C(=O)Nc1cc(CN2CC(C(F)(F)F)NC2=O)ccn1)C1CCC(F)CC1 [Example 291, N-((S)-1-((1r,4S)-4-fluorocyclohexyl)-2-oxo-2-((4-(((S)-2-oxo-4-(trifluoromethyl)imidazolidin-1-yl)methyl)pyridin-2-yl)amino)ethyl)-4-methyl-1,2,5-oxadiazole-3-carboxamide]
66 | C[C@H]1CC[C@H]([C@@H](NC(=O)c2nonc2C2CC2)C(=O)Nc2cc(C(NC(=O)CCC(F)(F)F)C3CC3)ccn2)CC1 (stereo partly drawn) [Example 235, 4-Cyclopropyl-N-((1S)-2-((4-(cyclopropyl(4,4,4-trifluorobutanamido)-methyl)pyridin-2-yl)amino)-1-((1r,4S)-4-methylcyclohexyl)-2-oxoethyl)-1,2,5-oxadiazole-3-carboxamide]
24 | COC[C@H](c1ccnc(NC(=O)C(NC(=O)c2nonc2C2CC2)C2CCC(F)CC2)c1)N1C[C@@H](C(F)(F)F)NC1=O (single isomer, unassigned) [Example 276]
26 | CCc1conc1C(=O)N[C@H](C(=O)Nc1cc([C@@H](COC)N2C[C@@H](C(F)(F)F)NC2=O)ccn1)C1CCCC(F)(F)C1 (single isomer, unassigned) [Example 304]
105 | CC1(C)CN(Cc2ccnc(NC(=O)[C@@H](NC(=O)c3nonc3C3CC3)[C@H]3CC[C@H](C)CC3)c2)C(=O)N1 [Example 25, 4-Cyclopropyl-N—((S)-2-((4-((4,4-dimethyl-2-oxoimidazolidin-1-yl)methyl)pyridin-2-yl)amino)-1-((1r,4S)-4-methylcyclohexyl)-2-oxoethyl)-1,2,5-oxadiazole-3-carboxamide]
36 | COC[C@H](c1ccnc(NC(=O)[C@H](COC(C)(C)C(F)(F)F)NC(=O)c2ccnn2C)c1)N1C[C@@H](C(F)(F)F)NC1=O [Example 271, N-((S)-1-((4-((S)-2-methoxy-1-((S)-2-oxo-4-(trifluoromethyl)imidazolidin-1-yl)ethyl)pyridin-2-yl)amino)-1-oxo-3-((1,1,1-trifluoro-2-methylpropan-2-yl)oxy)propan-2-yl)-1-methyl-1H-pyrazole-5-carboxamide]
4800 | COC[C@H](c1ccnc(NC(=O)C(NC(=O)c2nonc2C2CC2)C2CCC(C)(F)CC2)c1)N1C[C@@H](C(F)(F)F)NC1=O (single isomer, unassigned) [Example 297]
27 | CCc1nocc1C(=O)N[C@@H](COC(C)(C)C(F)(F)F)C(=O)Nc1cc([C@@H](COC)N2C[C@@H](C(F)(F)F)NC2=O)ccn1 [Example 267, 3-ethyl-N-((S)-1-((4-((S)-2-methoxy-1-((S)-2-oxo-4-(trifluoromethyl)imidazolidin-1-yl)ethyl)pyridin-2-yl)amino)-1-oxo-3-((1,1,1-trifluoro-2-methylpropan-2-yl)oxy)propan-2-yl)isoxazole-4-carboxamide]
60 | COCC(c1ccnc(NC(=O)[C@@H](NC(=O)c2conc2C(C)C)[C@H]2CC[C@H](C)CC2)c1)N1C[C@@H](C(F)(F)F)NC1=O (single isomer, unassigned) [Example 77]
45 | COC[C@H](c1ccnc(NC(=O)[C@H](COC(C)(C)C(F)(F)F)NC(=O)c2nocc2C)c1)N1C[C@@H](C(F)(F)F)NC1=O [Example 265, N—((S)-1-((4-((S)-2-methoxy-1-((S)-2-oxo-4-(trifluoromethyl)-imidazolidin-1-yl)ethyl)pyridin-2-yl)amino)-1-oxo-3-((1,1,1-trifluoro-2-methylpropan-2-yl)oxy)propan-2-yl)-4-methylisoxazole-3-carboxamide]
80 | CC(C)c1oncc1C(=O)N[C@H](C(=O)Nc1cc(C[C@H]2C[C@@H](C(F)(F)F)NC2=O)ccn1)C1CCC(F)(F)CC1 [Example 219, N-((S)-1-(4,4-difluorocyclohexyl)-2-oxo-2-((4-(((3S,5S)-2-oxo-5-(trifluoromethyl)pyrrolidin-3-yl)methyl)pyridin-2-yl)amino)ethyl)-5-isopropylisoxazole-4-carboxamide]
282 | CC(C)n1nccc1C(=O)N[C@H](C(=O)Nc1cc(C(NC(=O)CCC(F)(F)F)C2CC2)ccn1)C(C1CC1)C1CC1 (single isomer, unassigned) [Example 41]
77 | COCC(c1ccnc(NC(=O)[C@@H](NC(=O)c2nccn2C(C)C)[C@H]2CC[C@H](C)CC2)c1)N1C[C@@H](C(F)(F)F)NC1=O (single isomer, unassigned) [Example 115]
53 | [2H]C(c1ccnc(NC(=O)[C@@H](NC(=O)c2ccnn2C)[C@H]2CC[C@H](C)CC2)c1)N1C[C@@H](C(F)(F)F)NC1=O (stereo partly drawn) [Example 232, 1-Methyl-N-((1S)-1-((1r,4S)-4-methylcyclohexyl)-2-oxo-2-((4-(((S)-2-oxo-4-(trifluoromethyl)imidazolidin-1-VI)methyl-d)pyridin-2-yl)amino)ethyl)-1H-pyrazole-5-carboxamide]
183 | Cc1cnn(C)c1Cc1ccnc(NC(=O)[C@@H](NC(=O)c2ccnn2C(C)C)[C@H]2CC[C@H](C)CC2)c1 [Example 55, N—((S)-2-((4-((1,4-dimethyl-1H-pyrazol-5-yl)methyl)pyridin-2-yl)amino)-1-((1r,4S)-4-methylcyclohexyl)-2-oxoethyl)-1-isopropyl-1H-pyrazole-5-carboxamide]
85 | COC[C@H](c1ccnc(NC(=O)C(NC(=O)c2nonc2C)C2CCC(C)(F)CC2)c1)N1C[C@@H](C(F)(F)F)NC1=O (single isomer, unassigned) [Example 298]
374 | Cn1nccc1C(=O)NC(C(=O)Nc1cc(CN2CC(C(F)(F)F)NC2=O)ccn1)C1CCC(F)CC1 [Example 294, N-((S)-1-((1r,4S)-4-fluorocyclohexyl)-2-oxo-2-((4-(((S)-2-oxo-4-(trifluoromethyl)imidazolidin-1-yl)methyl)pyridin-2-yl)amino)ethyl)-1-methyl-1H-pyrazole-5-carboxamide]
65 | CC[C@H](c1ccnc(NC(=O)[C@@H](NC(=O)c2ccnn2C(C)C)C2CCC(F)(F)CC2)c1)N1C[C@@H](C(F)(F)F)NC1=O [Example 215, N-((S)-1-(4,4-difluorocyclohexyl)-2-oxo-2-((4-((R)-1-((S)-2-oxo-4-(trifluoromethyl)imidazolidin-1-yl)propyl)pyridin-2-yl)amino)ethyl)-1-isopropyl-1H-pyrazole-5-carboxamide]
31 | CCc1conc1C(=O)NC(C(=O)Nc1cc([C@@H](CC)N2C[C@@H](C(F)(F)F)NC2=O)ccn1)C1CCC(F)(F)CC1 (stereo in doubt) [Example 208, N—((S)-1-(4,4-difluorocyclohexyl)-2-oxo-2-((4-((R)-1-((S)-2-oxo-4-(trifluoromethyl)imidazolidin-1-yl)propyl)pyridin-2-yl)amino)ethyl)-4-ethylisoxazole-3-carboxamide]
29 | CC1CCC(C(NC(=O)c2ccnn2C(C)C)C(=O)Nc2cc(C(C)N3CC(C(F)(F)F)NC3=O)ccn2)CC1 [Example 241, 1-isopropyl-N-((S)-1-((1r,4S)-4-methylcyclohexyl)-2-oxo-2-((4-((R)-1-((S)-2-oxo-4-(trifluoromethyl)imidazolidin-1-yl)ethyl)pyridin-2-yl)amino)ethyl)-1H-pyrazole-5-carboxamide]

Compound | IC50 [nM]
N-((S)-1-(4,4-difluorocyclohexyl)-2-oxo-2-((4-(2-((S)-2-oxo-4-(trifluoromethyl)imidazolidin-1-yl)propan-2-yl)pyridin-2-yl)amino)ethyl)-1-isopropyl-1H-pyrazole-5-carboxamide [Example 175] | 384
C[C@@H](OC(C)(C)C)[C@H](NC(=O)c1nonc1C1CC1)C(=O)Nc1cc(CN2C[C@@H](C(F)(F)F)NC2=O)ccn1 [Example 102, N-((2S,3R)-3-(tert-butoxy)-1-oxo-1-((4-(((S)-2-oxo-4-(trifluoromethyl)-imidazolidin-1-yl)methyl)pyridin-2-yl)amino)butan-2-yl)-4-cyclopropyl-1,2,5-oxadiazole-3-carboxamide] | 356
